Measurements taken from patent publication US8946229B2, “Formulations” (UCB, Inc., priority 2002, dated 2015).

Assay: Reactivity of polyols with active compounds of formula I
Type: physicochemical

For OC[C@H]1O[C@@H](O[C@H]2[C@H](O)[C@@H](O)C(O)O[C@@H]2CO)[C@H](O)[C@@H](O)[C@H]1O (stereo partly shown) [Lactose], the “Reactivity with the active compounds of formula I (undesired reaction products)” value was “practically no reactivity”.
